Laboratory results as given in patent publication US7371411B2, “Methods for production of the oxidized glutathione composite with CIS-diamminedichloroplatinum and pharmaceutical compositions based thereof regulating metabolism, proliferation, differentiation and apoptotic mechanisms for normal and transformed cells” (Novelos Therapeutics, Inc., priority 1998, dated 2008).

Columns and labels:
stomach cancer = assay: Patient with stomach cancer, peritoneal metastases, ascites, splenomegaly and cholestatic hepatitis
Method: A patient was diagnosed as having stomach neoplasm for more than two years (adenocarcinoma of moderate differentiation degree).
A decision was taken to apply GSSG drug form. The drug was injected parenterally (intramuscularly and intravenously), and additionally, the drug form was used via local injections around the tumor tissue through an endoscope. An average doses which were used for intramuscular and intravenous injections—0.1-0.5 mg/kg, and for local injections—up to 50 mg in situ. Parenteral injections of the drug were applied every other day, b.i.d. (intravenous injections at the morning, and intramuscular ones at the evening), during three weeks, and after that, two times a week during four weeks. The drug introduction through the endoscope was performed once in seven days.
The tumor was solid-like type. Stomach walls were rigid. Histology examination defined the tumor as a moderate degree differentiation adenocarcinoma. […] The drug was introduced according to the identical regime: parenterally (intramuscularly and intravenously), and additionally, the drug form was introduced via local injections around the tumor tissue through an endoscope. An average doses which were used for intramuscular and intravenous injections—0.1-0.5 mg/kg, and for local injections—up to 50 mg in situ. Parenteral injections of the drug were applied every other day, b.i.d. (intravenous injections at the morning, and intramuscular ones at the evening), during three weeks, and after that, two times in a week during four weeks. The drug introduction through the endoscope was performed once in seven days.

[1] = tested on: glutathione reductase, glutathione-peroxidase, glutathione-S-transferase, γ-glutamyl-transpeptidase; conditions: intravenous, 2 mg/kg
Method: In addition, the activity variation of the enzymes participating in GSSG metabolism was evaluated (glutathione reductase, glutathione-peroxidase, glutathione-S-transferase,γ-glutamyl-transpeptidase).
Activity of the enzymes participating in the GSSG metabolism (glutathione reductase: EC. 1.6.4.2; glutathione-peroxidase: EC. 1.11.1.9; glutathione-S-transferase: EC.2.5.1.18; g-glutamyl-transpeptidase: EC.2.3.2.2) were determined by the standard reagent kits produced by Boehringer Mannheim GmbH.

HL-60 myeloid line cells = assay: Growth and apoptotic DNA degradation, HL-60 cells; conditions: 100 mg/mL
Method: The HL-60 myeloid line cells were grown in RPMI-1640 medium with addition of 10% fetal calf serum. Cultivation was carried out in closed flasks, the medium volume was 12 mL, it was replaced every four days.
(§1) The effect testing for the testing articles was performed 24, 48 hours after addition into the culture.
The analysis procedure involved the following: after 24-48 hour incubation there were calculated the total cell count and the dead cell count by the Trypan blue exclusion method; afterwards the cell suspension was centrifuged (at 12.000 g, in Eppendorf test-tubes during 10 min).
The HL-60 cell culture is human cells of myeloluekosis origin defective in the p53 gene.

[2] = tested on: human peripheral blood mononuclear leukocytes; conditions: 0.5-5000 mg/mL, ConA, 24 hours
Method: Oxidized glutathione (GSSG) as well as a structural analog thereof, which is a hexapeptide with a stabilized disulfide bond, were evaluated for their effect on cytokine production by human peripheral blood mononuclear leukocytes in vitro.
The leukocytic cytokine production was triggered by adding a mitogen, concanavalin A (ConA) to the cell culture immediately after introducing the test substances. In 24 hours of the cellular exposure to ConA and the test articles, the culture supernatants were sampled and stored until cytokine determination at −70° C. […]
Each concentration was established in no less than six wells by adding 50 mL of medium containing the appropriate quantity of the previously dissolved test articles. […]
Immediately after the test articles had been introduced into the cultures, 50 mL of medium containing ConA (Sigma, cell culture tested) in a quantity required for a final concentration of 4.0 mg/mL, was added to all the wells excepting three additional ones which served for evaluation of spontaneous ^3H-thymidine uptake (without ConA). […]
The filters were dried and their radioactivity (counts per minute, cpm) was determined using liquid scintillation counter, Betaplate 1205 (LKB). […]

normal human lymphocytes = assay: Growth and apoptotic DNA degradation, normal human lymphocytes; conditions: 100 mg/mL, 24, 48 hours
Method: Venous blood of healthy volunteers was collected into heparinized test-tubes, which had been tested for endotoxin. A mononuclear fraction of blood leukocytes was obtained by centrifugation in ficoll-metrizoat gradient (Histopaque, Sigma). Cell concentration was adjusted to 2×10^6 cells per 1 ml of cell culture medium (RPMI 1640), containing 20 mM HEPES, 2 mM glutamine, 50 mg/mL gentamicin and 10% fetal calf serum. Cell viability was estimated by the Trypan blue exclusion method, then the cell suspension was placed into wells of 24- and 96-well microliter plates—250,000 cells per well.
as §1
The analysis procedure involved the following: after 24-48 hour incubation there were calculated the total cell count and the dead cell count by the Trypan blue exclusion method; afterwards the cell suspension was centrifuged (at 12.000 g, in Eppendorf test-tubes during 10 min). The cell pellet was frozen and kept at −70° C. before the DNA separation. The DNA separation was conducted by Kirbi-Georgiyev phenol method. […] Then it was diluted in 10 mL of the A buffer; the DNA amount was determined by Dishe method and electrophoresis was performed in 2% agarose gel (agarose with NA grade made by “Pharmacia LKB, Biotechnology Inc” (Austria) was used). […]

CP-treated mice = assay: Cyclophosphamide-induced hemo- and immunodepression, murine model; conditions: CP 50 mg/kg; 5 mg/kg intraperitoneally daily for five days; day 8
From the text: The study was designed to evaluate the effect of a five-day long administration of the test articles on the capability of the CP-treated murine splenocytes to produce interleukin-1 (IL-1 α,b); interleukin-2 (IL-2); interleukin-3 (IL-3); interleukin-4 (IL-4); interleukin-6 (IL-6), interleukin-8 (IL-8); interleukin-10 (IL-10); interleukin-12 (IL-12); tumor necrosis factor-α, g (TNF-α, g), interferon-α, g (IFN-α, g) and G-CSF, M-CSF, GM-CSF in vitro. In addition, the blood leukocyte and lymphocyte count and the bone marrow cellularity (karyocyte count) were determined at eight days after CP administration. Some animals receiving CP were then challenged with sheep red blood cells (SRBC), and the humoral immune response to the antigen was evaluated.
Male CBA mice (180 to 200 g body weight) were given a single introperitoneal injection of CP in a dose of 50 mg/kg. Four groups of animals (with no less than 15 mice in each) were formed.
#3—animals receiving a single CP injection, which further were treated with the test article (GSSG dissolved in normal saline) in a dose of 5 mg/kg;
Twenty-four hours after the CP injection, five animals in each group were immunized with SRBC (10^7 cells in 0.5 mL of NS, intra-peritoneally).
Injections were performed during five days: once a day, daily. […]

[3] = tested on: mice irradiated in a dose of 1 Gy; conditions: 5 mg/kg intraperitoneally daily for seven days, 8th day
From the text: The study was designed to evaluate efficacy of seven-day daily administration of the test articles (with the dosing started two hours post-exposure) on the capability of the splenocytes from mice exposed to radiation to produce interleukin-1 (IL-1 α,b); interleukin-2 (IL-2); interleukin-3 (IL-3); interleukin-4 (IL-4); interleukin-6 (IL-6), interleukin-8 (IL-8); interleukin-10 (IL-10); interleukin-12 (IL-12); tumor necrosis factor-α, g (TNF-α, g), interferon-α, g (IFN-α,) and G-CSF, M-CSF, GM-CSF in vitro. In addition, the blood leukocyte and lymphocyte counts and the spleen and bone marrow cellularity (karyocyte count), as we well as splenic and medullary colony-stimulating capacity, were determined at the 8th day post-exposure.
Male CBA mice (18 to 20 g body weight) were irradiated with single dose of 180 kV X-rays filtered with 0.5 mm Cu (at 15 mA, distance—70 cm, duration two min. and 28 sec.). The total absorbed dose comprised approximately 1 Gy. […]
Additionally, hemopoietic colony-formation ability of spleen and bone marrow cells was assessed by the method of colony-forming unit (CFU) direct count in the spleens of irradiated singenic CBA mice receiving intravenously spleen or bone marrow cells obtained from animals of control or test groups.

[4] = tested on: chronic viral hepatitis B (HBV); assay: Patients with chronic viral hepatitis B; type: in vivo, human
Method: Previous treatment: from 17 Sep. 1997 the patient was administered with acyclovir during 21 days.

[5] = two months after treatment start
[6] = patient No. 4, previous treatment during 21 days

Compound | tumor size decrease (stomach cancer; fibrogastrocopy data) [%] | hematology and blood chemistry indices (stomach cancer; [5]) | liver protrusion below the costal arch (stomach cancer; [5]) [cm] | tumor extent at fibrogastroscopy (stomach cancer; two months after treatment start, before: about 8 cm (GSSG course), about 6 cm (GSSG.Pt course)) [cm] | activity of the enzymes participating in the thiol (glutathione) metabolism [1] | DNA electrophoresis (apoptotic ladder) (HL-60 myeloid line cells; 24 and 48 hours) | high molecular DNA in the apoptotic ladder (HL-60 myeloid line cells; FIG. 14) | dead HL-60 cell quantity (HL-60 myeloid line cells; Trypan blue exclusion) | cytokine production by human mononuclear leukocytes [2] | normal cell proliferation (normal human lymphocytes) | cytokine and hemopoietic factor production by splenocytes (CP-treated mice) | cytokine and hemopoietic factor production by splenocytes [3] | liver protrusion beyond the costal arch after the treatment course ([4]; patient No. 3 (GSSG, before 2 cm), patient No. 4 (GSSG.Pt, before 2.5 cm)) [cm] | ALT after the course completion [4, 6] [mmol/h/L] | Hbs Ag degree [4, 6] | bilirubin after the course completion [4, 6] [mmoVL]
bis-(γ-L-glutamyl)-L-cysteinyl-bis-glycine [GSSG] | 40 | substantial improvement of hematology and blood chemistry indices | 3 | 4.8 | increases approximately two times the activity | revealed the DNA oligonucleosomic degradation | contained considerable amount of the high molecular DNA | reliably lower than the one after the GSSG.Pt effect | statistically significant and dose-dependent stimulation of the cytokine production | stimulated the normal cell proliferation | only exiguous stimulating effect | less significant effect | 0.5 |  |  | 
Nc1nc2c(ncn2COCCO)c(=O)[nH]1 [acyclovir] |  |  |  |  |  |  |  |  |  |  |  |  |  | 2.1 | did not change | 32
